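48-hour exposure; five concentrations; linearly interpolated endpoints. Abbreviation: GI50, concentration required for 50% inhibition of growth.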 Calls of active or inactive are those of the source. Cut-off read from the data, not from the text of the source: active = GI50 up to about 1.1 µM and inactive = higher. Bounds are passed on as bounds.

What all share (experiment): growth of human tumour cells (NCI), 48 h
Assay [1] concerns NCI-H522.
For assay [2], the system named is UACC-62.
Assay [3] deals with SK-MEL-5.
In assay [4] the test system is SW-620.
For assay [5], the system named is HCT-15.
The subject of assay [6] is MDA-MB-231.
The test system of assay [7] is KM12.
The test system of assay [8] is 786-0.
Assay [9] has as its system IGROV-1.
The test system of assay [10] is Malme-3M.
Assay [11] has as its system LOX IMVI.
Assay [12] concerns UACC-257.
The subject of assay [13] is BT-549.
Assay [14] relates to MDA-N.
Assay [15] deals with SN12C.
In assay [16] the test system is MDA-MB-435.
Assay [17] deals with NCI-H23.
In assay [18] the test system is OVCAR-5.
For assay [19], the system named is M14.
For assay [20], the system named is EKVX.

For the compound `O=C(CCNC(=O)OCc1ccccc1)OCCCNC(=O)OCc1ccccc1`, the GI50 in [1] is > 100 µM (inactive); in assay [2], > 100 µM (inactive); in assay [3], > 100 µM (inactive); in assay [4], > 100 µM (inactive); in [5], above 100 µM; in assay [6], > 100 µM (inactive). For the same compound, the GI50 in [7], in assay [8], in [9], in assay [10], in [11] and in [12] was > 100 µM (inactive) throughout. The GI50 in [13], in assay [14], in assay [15], in [16], in assay [17] and in assay [18] was > 100 µM (inactive) each time. Moreover, in [19], the GI50 was > 100 µM (inactive).

In the case of `CC(=O)OCC1OC(N2C(c3ccccc3)=CC(c3ccccc3)C(C#N)=C2S)C(OC(C)=O)C(OC(C)=O)C1OC(C)=O` (stereo not given), the GI50 was 7.89 µM (inactive) in assay [1]; 0.583 µM (active) in assay [2]; 1.64 µM (inactive) in [3]; 54.7 µM (inactive) in assay [4]; 48.5 µM in assay [5]; 3.7 µM (inactive) in [6]. Further, the GI50 in [7] is 15.7 µM (inactive); in [8] it was 2.33 µM (inactive); in assay [9], 18.2 µM (inactive); in assay [10], 5.43 µM (inactive); in [11], 4.49 µM (inactive); in [12], 3.63 µM (inactive). The GI50 is 5.57 µM (inactive) in [13]; 2.02 µM (inactive) in [14]; 3.56 µM (inactive) in assay [15]; 4.92 µM (inactive) in assay [16]; 7.41 µM (inactive) in [17]; 14.6 µM (inactive) in [18]. In addition, the GI50 in assay [19] was 12.6 µM (inactive).

For the compound `Brc1ccccc1/C=N\C12CC3CC(CC(C3)C1)C2`, the GI50 in assay [1] is > 100 µM (inactive); in [2], 12 µM (inactive); in [3], 51.6 µM (inactive); in assay [4] it was 3.9 µM (inactive); in assay [5] it was 1.99 µM; in [6] it was > 100 µM (inactive). The GI50 is > 100 µM (inactive) in [7]; > 100 µM (inactive) in assay [20]; > 52.8 µM (inactive) in [8]; > 100 µM (inactive) in assay [9]; > 67.9 µM (inactive) in assay [10]; 19.9 µM (inactive) in assay [11]. For the same compound, the GI50 was > 79.4 µM (inactive) in assay [12]; > 100 µM (inactive) in assay [13]; 3.38 µM (inactive) in assay [14]; > 63.1 µM (inactive) in assay [15]; 8.47 µM (inactive) in [16]; > 65 µM (inactive) in assay [17]. Besides, the GI50 in assay [18] is > 100 µM (inactive); in assay [19], 28.1 µM (inactive).

With `CC(C)=CC(=O)c1[nH]c2ccccc2c1CC(=O)NCCc1cn(C(c2ccccc2)(c2ccccc2)c2ccccc2)cn1`, the GI50 is 6.71 µM (inactive) in assay [1]; 1.97 µM (inactive) in assay [2]; 2.08 µM (inactive) in [3]; 3.74 µM (inactive) in assay [4]; 3.89 µM in assay [5]; 2.16 µM (inactive) in assay [6]. The GI50 in assay [7] is 3.29 µM (inactive); in assay [20], 3.48 µM (inactive); in assay [8] it was 3.82 µM (inactive); in assay [9], 3.84 µM (inactive); in [10], 5.78 µM (inactive); in assay [11], 2.02 µM (inactive). Besides, the GI50 in [12] is 3.67 µM (inactive); in assay [13], 3.25 µM (inactive); in assay [14] it was 2.91 µM (inactive); in assay [15] it was 2.81 µM (inactive); in assay [16] it was 2.06 µM (inactive); in assay [17], 4.69 µM (inactive). Moreover, the GI50 is 3.39 µM (inactive) in assay [18] and 2.02 µM (inactive) in assay [19].

As for `O=C1/C(=C\Oc2ccc(F)cc2)N2CCC1CC2`, the GI50 in [1] was 50.8 µM (inactive); in assay [2] it was 25.9 µM (inactive); in [3] it was 63.5 µM (inactive); in assay [5], 70.6 µM; in assay [6] it was 80.5 µM (inactive); in [20] it was 55.5 µM (inactive). Moreover, the GI50 in [8] is > 100 µM (inactive); in assay [9], 88.3 µM (inactive); in [10], 33.3 µM (inactive); in assay [11], 25.7 µM (inactive); in assay [12], 23.7 µM (inactive); in assay [13] it was 55 µM (inactive). In addition, the GI50 is 47.2 µM (inactive) in assay [14]; 94.6 µM (inactive) in [15]; 40.5 µM (inactive) in [16]; 54.5 µM (inactive) in assay [17]; > 100 µM (inactive) in [18]; > 100 µM (inactive) in assay [19].

For the compound `CC(=O)Oc1ccc2c3c1[C@H]1O[C@H]1c1cccc(c1-3)[C@@H]1O[C@H]21`, the GI50 in [1] was 1.9 µM (inactive); in [2] it was 8 µM (inactive); in [3], 4.25 µM (inactive); in assay [4] it was 2.09 µM (inactive); in assay [5], 5 µM; in assay [6] it was 12.8 µM (inactive). In addition, the GI50 in assay [7] is 12.6 µM (inactive); in assay [20] it was 16.5 µM (inactive); in [8], 2.21 µM (inactive); in assay [10] it was 2.72 µM (inactive); in [11] it was 1.81 µM (inactive); in [12], 8.22 µM (inactive). Besides, the GI50 was 8.97 µM (inactive) in assay [13]; 6.87 µM (inactive) in assay [14]; 2.69 µM (inactive) in assay [15]; 2.04 µM (inactive) in assay [16]; 4.92 µM (inactive) in assay [17]; 14.8 µM (inactive) in assay [18]. Besides, the GI50 in assay [19] was 4.81 µM (inactive).

For `Cc1nnc(N/N=C2/C(=O)Nc3ccccc32)nc1O`, the GI50 in assay [1] is > 100 µM (inactive); in assay [2], > 100 µM (inactive); in assay [4], > 100 µM (inactive); in [5] it was above 100 µM; in assay [6] it was > 100 µM (inactive); in assay [7], > 100 µM (inactive). The GI50 in assay [20] was > 100 µM (inactive); in assay [8], > 100 µM (inactive); in assay [9], > 100 µM (inactive); in [10], 72.8 µM (inactive); in assay [11], > 100 µM (inactive); in assay [12], > 100 µM (inactive). Besides, the GI50 in assay [13], in assay [14], in assay [15], in assay [16], in assay [18] and in assay [19] was > 100 µM (inactive) in each case.

As for `CCCCN1C(=O)N(c2ccc(OCC)cc2)C2N(CCCC)C1C(C)(C)C2(C)C` (stereo not given), the GI50 in assay [1] is 44.1 µM (inactive); in assay [2], 16.9 µM (inactive); in [3], 15.7 µM (inactive); in [4] it was 32.6 µM (inactive); in [5], 26.6 µM; in assay [6], 41.5 µM (inactive). For the same compound, the GI50 in assay [7] was 34.1 µM (inactive); in assay [20], 19.7 µM (inactive); in assay [8] it was 21.5 µM (inactive); in [9] it was 33.6 µM (inactive); in assay [10], 24.2 µM (inactive); in assay [11], 7.71 µM (inactive). Also, the GI50 in assay [12] is 27.5 µM (inactive); in [13] it was 30.3 µM (inactive); in assay [14], 22 µM (inactive); in assay [15] it was 30.3 µM (inactive); in assay [16], 20.2 µM (inactive); in assay [17], 24.8 µM (inactive). Besides, the GI50 in assay [19] was 25.1 µM (inactive).

Consider `Cc1ccc(S(=O)(=O)NC(CCC(=O)NNc2ccccc2)C(=O)NNc2ccccc2)cc1` (stereo not given), for which the GI50 in [1] is > 100 µM (inactive); in assay [2] it was 2.87 µM (inactive); in assay [3], 98.4 µM (inactive); in assay [4], 6.65 µM (inactive); in assay [5], 15.4 µM; in assay [6], > 100 µM (inactive). For the same compound, the GI50 in [7] was 2.84 µM (inactive); in assay [20] it was > 100 µM (inactive); in assay [8] it was > 100 µM (inactive); in assay [9], 91 µM (inactive); in assay [10], 31.7 µM (inactive); in assay [11], > 100 µM (inactive). Moreover, the GI50 in [12] was 15.1 µM (inactive); in assay [13], > 100 µM (inactive); in [14] it was 17.2 µM (inactive); in [16], > 100 µM (inactive); in assay [17], 61.4 µM (inactive); in assay [18], 46.8 µM (inactive). The GI50 in assay [19] was 9.53 µM (inactive).

As for `O=C1C(Cl)=C(NCCN2CCOCC2)C(=O)c2ncccc21`, the GI50 was 1.33 µM (inactive) in [2]; 0.723 µM (active) in [3]; 1.85 µM (inactive) in [4]; 1.91 µM in assay [5]; 2.08 µM (inactive) in assay [6]; 1.73 µM (inactive) in assay [7]. For the same compound, the GI50 was 1.75 µM (inactive) in assay [20]; 1.44 µM (inactive) in assay [8]; 1.97 µM (inactive) in [9]; 1.71 µM (inactive) in assay [10]; 1.01 µM (active) in assay [11]; 1.71 µM (inactive) in [12]. The GI50 in [13] was 1.79 µM (inactive); in assay [14] it was 0.2 µM (active); in assay [15], 1.73 µM (inactive); in assay [16], 0.195 µM (active); in assay [17], 1.62 µM (inactive); in [18], 2.15 µM (inactive). Moreover, in assay [19], the GI50 was 1.61 µM (inactive).

The record behind these values is ChEMBL document CHEMBL1201862, “PubChem BioAssay data set” (2004).
